Source: the NIST ThermoML archive (doi:10.1021/je060271a)
Where “and” joins values, the source holds several entries; their conditions need not be identical. Equal values may be shown once. Numbers after ± are expanded uncertainties.

Conditions: Liquid, Vibrating tube method

CCCCCC(=O)OCC(COC(=O)CCCCC)(COC(=O)CCCCC)COC(=O)CCCCC [pentaerythritol tetrahexanoate]
mass density (283.14 K, 6785.3 kPa): 1008.1 ± 1.2 kg/m3
mass density (283.14 K, 6787.6 kPa): 1008 ± 1.2 kg/m3 and 1008.2 ± 1.2 kg/m3
mass density (283.14 K, 6787.7 kPa): 1008.1 ± 1.2 kg/m3
mass density (283.14 K, 6787.9 kPa): 1008.1 ± 1.2 kg/m3 and 1008 ± 1.2 kg/m3
mass density (283.14 K, 30862 kPa): 1021 ± 1.2 kg/m3
mass density (283.14 K, 30898 kPa): 1021 ± 1.2 kg/m3
mass density (283.14 K, 30915 kPa): 1021 ± 1.2 kg/m3
mass density (283.14 K, 32175 kPa): 1021.8 ± 1.2 kg/m3
mass density (283.14 K, 32194 kPa): 1021.7 ± 1.2 kg/m3
mass density (283.14 K, 32218 kPa): 1021.7 ± 1.2 kg/m3
mass density (283.14 K, 32238 kPa): 1021.8 ± 1.2 kg/m3
mass density (283.14 K, 32258 kPa): 1021.8 ± 1.2 kg/m3
mass density (283.14 K, 32282 kPa): 1021.8 ± 1.2 kg/m3
mass density (283.14 K, 32303 kPa): 1021.7 ± 1.2 kg/m3
mass density (283.14 K, 32324 kPa): 1021.8 ± 1.2 kg/m3
mass density (283.15 K, 90.7 kPa): 1004 ± 1.2 kg/m3
mass density (283.15 K, 90.8 kPa): 1004.1 ± 1.2 kg/m3
mass density (283.15 K, 90.9 kPa): 1004.2 ± 1.2 kg/m3
mass density (283.15 K, 96 kPa): 1004.2 ± 1.2 kg/m3
mass density (283.15 K, 96.1 kPa): 1004.2 ± 1.2 kg/m3
mass density (283.15 K, 96.4 kPa): 1004.1 ± 1.2 kg/m3 and 1004.2 ± 1.2 kg/m3
mass density (283.15 K, 96.6 kPa): 1004.2 ± 1.2 kg/m3
mass density (283.15 K, 96.7 kPa): 1004.2 ± 1.2 kg/m3
mass density (283.15 K, 96.9 kPa): 1004.2 ± 1.2 kg/m3
mass density (283.15 K, 97.3 kPa): 1004.1 ± 1.2 kg/m3
mass density (283.15 K, 97.4 kPa): 1004.1 ± 1.2 kg/m3 and 1004.2 ± 1.2 kg/m3
mass density (283.15 K, 97.6 kPa): 1004 ± 1.2 kg/m3 and 1004.2 ± 1.2 kg/m3
mass density (283.15 K, 99.3 kPa): 1004.2 ± 1.2 kg/m3
mass density (283.15 K, 101.4 kPa): 1004.2 ± 1.2 kg/m3
mass density (283.15 K, 101.6 kPa): 1004.2 ± 1.2 kg/m3
mass density (283.15 K, 102.1 kPa): 1004.2 ± 1.2 kg/m3
mass density (283.15 K, 102.2 kPa): 1004.1 ± 1.2 kg/m3 and 1004.2 ± 1.2 kg/m3
mass density (283.15 K, 106.2 kPa): 1004.2 ± 1.2 kg/m3
mass density (283.15 K, 106.9 kPa): 1004.1 ± 1.2 kg/m3
mass density (283.15 K, 107 kPa): 1004.2 ± 1.2 kg/m3
mass density (283.15 K, 107.4 kPa): 1004 ± 1.2 kg/m3
mass density (283.15 K, 107.5 kPa): 1004.1 ± 1.2 kg/m3
mass density (283.15 K, 107.7 kPa): 1004.2 ± 1.2 kg/m3
mass density (283.15 K, 107.9 kPa): 1004.2 ± 1.2 kg/m3 and 1004.3 ± 1.2 kg/m3
mass density (283.15 K, 111.3 kPa): 1004.1 ± 1.2 kg/m3
mass density (283.15 K, 111.5 kPa): 1004.2 ± 1.2 kg/m3
mass density (283.15 K, 111.7 kPa): 1004.3 ± 1.2 kg/m3
mass density (283.15 K, 112 kPa): 1004.2 ± 1.2 kg/m3
mass density (283.15 K, 112.3 kPa): 1004.1 ± 1.2 kg/m3
mass density (283.15 K, 112.4 kPa): 1004.2 ± 1.2 kg/m3
mass density (283.15 K, 112.5 kPa): 1004.1 ± 1.2 kg/m3
mass density (283.15 K, 112.7 kPa): 1004.2 ± 1.2 kg/m3 and 1004.1 ± 1.2 kg/m3
mass density (283.15 K, 113 kPa): 1004.1 ± 1.2 kg/m3 and 1004.2 ± 1.2 kg/m3
mass density (283.15 K, 113.2 kPa): 1004.3 ± 1.2 kg/m3 and 1004.1 ± 1.2 kg/m3
mass density (283.15 K, 113.4 kPa): 1004.2 ± 1.2 kg/m3
mass density (283.15 K, 113.5 kPa): 1004.1 ± 1.2 kg/m3
mass density (283.15 K, 113.9 kPa): 1004.2 ± 1.2 kg/m3
mass density (283.15 K, 114.1 kPa): 1004.2 ± 1.2 kg/m3
mass density (283.15 K, 114.4 kPa): 1004.1 ± 1.2 kg/m3
mass density (283.15 K, 114.6 kPa): 1004.1 ± 1.2 kg/m3
mass density (283.15 K, 114.8 kPa): 1004.3 ± 1.2 kg/m3
mass density (283.15 K, 114.9 kPa): 1004.2 ± 1.2 kg/m3 and 1004.1 ± 1.2 kg/m3
mass density (283.15 K, 115.1 kPa): 1004.2 ± 1.2 kg/m3
mass density (283.15 K, 115.4 kPa): 1004.2 ± 1.2 kg/m3
mass density (283.15 K, 115.5 kPa): 1004.2 ± 1.2 kg/m3
mass density (283.15 K, 115.8 kPa): 1004.2 ± 1.2 kg/m3
mass density (283.15 K, 116 kPa): 1004.2 ± 1.2 kg/m3
mass density (283.15 K, 116.3 kPa): 1004.2 ± 1.2 kg/m3
mass density (283.15 K, 116.5 kPa): 1004.1 ± 1.2 kg/m3
mass density (283.15 K, 116.7 kPa): 1004.2 ± 1.2 kg/m3
mass density (283.15 K, 116.8 kPa): 1004.2 ± 1.2 kg/m3
mass density (283.15 K, 117.2 kPa): 1004.1 ± 1.2 kg/m3
mass density (283.15 K, 117.3 kPa): 1004.2 ± 1.2 kg/m3 and 1004.3 ± 1.2 kg/m3
mass density (283.15 K, 117.5 kPa): 1004.2 ± 1.2 kg/m3
mass density (283.15 K, 117.9 kPa): 1004.2 ± 1.2 kg/m3 and 1004.3 ± 1.2 kg/m3
mass density (283.15 K, 118 kPa): 1004.1 ± 1.2 kg/m3
mass density (283.15 K, 118.2 kPa): 1004.2 ± 1.2 kg/m3
